Experimental data reported in patent US20230028463A1, “METHOD FOR PRODUCING ACTINIC RAY-SENSITIVE OR RADIATION-SENSITIVE RESIN COMPOSITION, PATTERN FORMATION METHOD, AND METHOD FOR MANUFACTURING ELECTRONIC DEVICE” (FUJIFILM Corporation, priority 2020, published 2023).

Assay: Solubility of photoacid generator in 100 g of solvent at 25° C.
Type: physicochemical
Details: in 100 g of PGME at 25° C.
Description: <Solubility (g) of Photoacid Generator in 100 g of Solvent at 25° C.>
“A”: The solubility is more than 3 g
“B”: The solubility is 0.5 to 3 g
“C”: The solubility is less than 0.5 g

With `c1ccc([S+]2CCCC2)cc1` [B-4] the “Solubility (25° C.) of photoacid generator in solvent” value was “A (The solubility is more than 3 g)”.
